# Experimental data published in patent US9199931B2, “Pyrrolidine derivatives” (UNIVERSITE CLAUDE BERNARD LYON I, priority 2012, dated 2015).
# Entries after “also recorded” stand apart in the source; their conditions may differ.
# Columns and labels:
# [1] = inflow through in vitro model of the choroidal epithelium (blood/cerebrospinal fluid barrier); assay type: in vitro ADME; settings: rat; basolateral exposure at 150 μm for 60 minutes, 37° C.; read-out: penetration rate of the peripheral blood compartment towards the brain compartment
# Procedure: A study was conducted with the BIP platform (Centre de Recherche en Neurosciences de Lyon, Lyons, France) for comparing the inflow of four compounds of interest through the cerebrospinal liquid/blood barrier. The study was carried out with an in vitro model of the choroidal epithelium restoring this interface. Choroidal cells were exposed by their basolateral pole to the compounds at a concentration of 150 μm for 60 minutes. The permeability of the cell monolayers to saccharose was analyzed in terms of these transfers, in order to detect possible toxicity of the compounds.
# The epithelial cells are isolated from the choroidal plexus of a lateral ventricle taken on newly born rats as described earlier. The cells are sown on microporous supports (Transwell PC, pore size 0.4 μm, surface area […], diameter 6.5 mm), and cultivated in DMEM-F12 (1:1) supplemented with 10% FCS, 2 mM glutamine and 50 μg/ml gentamycin, as well as with various growth factors. The medium is renewed every two days until the day of experiment.
# The transfer measurements were conducted under kinetic conditions (3 phases), with stirring (200 rpm), at 37° C., in a Ringer-Hepes buffer (RH). The volumes used in both compartments during the transfer are adjusted so as to minimize any hydrostatic pressure effect. The inserts are rinsed in RH before initiating the permeability study. For each compound, the transfer is carried out in parallel on three laminin inserts (without any cell) and three inserts with a cell monolayer.
# Inflow measurements (from blood to the cerebrospinal fluid) were conducted during a kinetic study (20 min periods) for the four compounds of interest. Briefly, the compound of interest, diluted to 150 μm in RH is placed in the lower compartment of a multi-well cultivation plate, which reproduces the blood compartment. Transfer is initiated by placing a culture insert containing RH in the upper compartment, which corresponds to the cerebrospinal fluid. At regular intervals, an aliquot of the upper medium is taken and replaced with an equivalent volume of preheated RH at 37° C. […] The samples taken are analyzed by high performance liquid chromatography (HPLC) on an LC10 Shimadzu system chain (Duisburg, Germany), equipped with a spectrophotometric detector.
# At the end of the transfer of the compounds of interest, [^14C]-saccharose is added as an aliquot into the upper compartment of the inserts. […] The media sampled in the wells and in the inserts at the end of the transfer of saccharose are analyzed by liquid scintillator counting in a β Canberra Packard TRI-GARB 1600TR counter. […]
# The permeability coefficient of the cell monolayer Pe (in cm·min^−1) is calculated from the PS determined on laminin filters and filters with cells and by taking into account the exchange surface area. […]
# [2] = test system: extracellular glutamate (Glu) and aspartate (Asp) levels, striatum; assay: in vivo intracerebral microdialysis: extracellular glutamate and aspartate levels in striatum; design: species or system rat (Wistar); settings: for effect on extracellular Glu and Asp levels: 1 mmol/L by reverse microdialysis, striatum, anesthetized rats; for action on glutamate when the glutamate levels are high: rat brain, initial glutamate level high, notably greater than 10 μmol/L; for Effect on Glu end/or Asp: striatum of anesthetized rats, reverse microdialysis; for effect of co-administration of CNQX on the compound's effects: compound at 1 mmol/L co-administered with CNQX, Asp levels are increased
# Source text: One of the widespread methodological approaches, both in academic laboratories and in industrial laboratories, and used for following the extracellular concentrations of glutamate (Glu) and of aspartate (Asp) before, during and after administration of pharmacological agents targeting their receptors is intracerebral microdialysis. This type of test was therefore used, in order to track the in vivo effects of the molecules according to the invention as compared with those of kainic acid, for which the synthesized molecules are structural analogues (substituted pyrrolidines).
# Concentric microdialysis probes with a regenerated cellulose membrane (Spectra/Por hollow fiber; molecular cut off 6,000 Da, 225 μm in external diameter, a length of 3 mm, Spectrum Medical Industries, Los Angeles, Calif., USA) and tubings in molten silica (40 μm i.d×105 μm o.d., Polymicro Technology, Phoenix, Ariz., USA) were manufactured according to a design already published (Bert et al 1996, [26]). They were perfused with a flow rate of 1 μl/min with artificial cerebrospinal fluid or CSF (145.0 mM NaCl; […]; 1.0 mM MgCl2; 1.2 mM CaCl2; 0.45 mM NaH2PO4; 1.55 mM Na2HPO4; pH 7.4) by means of a Harvard pump (Model 22, South Natick, Mass., USA).
# The in vivo microdialysis experiments were conducted on male rats of the Wistar strain with an average weight of about 300 g, (provider: Charles River, L'Arbresle, France) anesthetized with urethane (a dose of 1.4 g/kg via an i.p, route, provider: Sigma-Aldrich, St. Louis, Mo., USA). The probes were implanted dorso lateral striatum according to the following stereotaxic coordinates relatively to the bregma: antero-posteriority 0 mm, laterality […], depth […] under the cortical surface. The dialysates (samples) were collected from the beginning of the 4th hour after implantation of the probe. The samples were taken every 5 minutes in PCR tubes of 200 μl (Axygene, Union City, Calif., USA) and immediately frozen at −20° C. The samples were analyzed subsequently in order to determine the glutamate and aspartate contents. The pharmacological agents and the compounds according to the invention were administered in situ by reverse microdialysis by changing the perfusion at the inlet of the probe of the CSF without any pharmacological agent to the one containing the pharmacological agent(s) (Bert et al., 2002 [27]; Parrot et al 2003 [28]).
# CE analyses were carried out with a P/ACE MDQ system (Beckman-Coulter, Fullerton, Calif., USA) equipped with an external detector LIF ZETALIF (Picometrics, Toulouse, France). Detection was achieved by fluorescence at a wavelength of 442 nm and generated with a He—Cd laser Omnichrome (Chino, Calif., USA). The emission intensity was collected at 490 nm. Before analysis, the samples were derived with naphthalene-2,3-dicarboxaldehyde with cyanide ions as a nucleophilic agent (pH 8.7; borate buffer 500 mM). The separations were conducted in a capillary of molten silica with an internal diameter of […] and an outer diameter of 375 μm with a length of 63 cm, with a useful length of 52 cm (Polymicro Technology) by using the procedure entirely detailed and validated earlier (Sauvinet et al., 2003 [29] Bert et al., 2002 (271). The Glu and Asp concentrations measured in striatum samples were above detection limits and were determined by interpolation by means of standard ranges.
# All the reagents of the neurochemical study (except for the compound according to the invention) were purchased from Sigma-Aldrich (St Louis, Mo., USA). The mother-solutions of the synthesized molecules, of the kainate (KA, agonist of the KA receptors for glutamate), CNQX, 6-cyano-7-nitroquinoxaline-2,3(1H,4H)-dione (CAS-No. 115066-14-3, antagonist of KA receptors), from Glu and Asp were aliquoted to 1 or 0.1 mM and stored at −30° C. After their administration, the tested pharmacological agents were diluted in artificial CSF. […]
# [3] = biological target: CB1 (receptors of type 1 to endocannabinoids, CB-1) (Homo sapiens, UniProt P21554); assay: in vitro specific binding inhibition (radioligand, 60 receptors); settings: n = 2, read-out: % of inhibition of the control specific binding at 10 μM, CB1 towards its agonistic ligand
# CB1 (receptors of type 1 to endocannabinoids, CB-1), sequence (P21554 whole entry): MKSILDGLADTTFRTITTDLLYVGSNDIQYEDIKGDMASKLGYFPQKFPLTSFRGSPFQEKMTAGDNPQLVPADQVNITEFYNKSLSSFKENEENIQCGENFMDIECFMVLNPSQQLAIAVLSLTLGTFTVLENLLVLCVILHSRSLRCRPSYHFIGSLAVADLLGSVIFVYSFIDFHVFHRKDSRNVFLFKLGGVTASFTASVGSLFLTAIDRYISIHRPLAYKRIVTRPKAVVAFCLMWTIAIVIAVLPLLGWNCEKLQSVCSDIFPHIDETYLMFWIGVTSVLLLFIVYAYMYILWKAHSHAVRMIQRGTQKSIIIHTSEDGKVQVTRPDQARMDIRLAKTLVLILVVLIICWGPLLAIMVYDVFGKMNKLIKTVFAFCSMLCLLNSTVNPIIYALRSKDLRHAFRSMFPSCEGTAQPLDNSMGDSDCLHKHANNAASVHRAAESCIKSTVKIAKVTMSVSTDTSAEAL
# Procedure: In order to determine the target receptors of the compounds according to the invention, experiments of specific binding inhibition were conducted in vitro. Pharmacology in vitro: tests of specific bindings.
# Sixty receptors were tested in the study according to standardized methods by using their specific radioligand as reported earlier.
# The results may be expressed as a % of the specific control bond [(measured specific bond/control specific bond)×100] and as a % of inhibition of the specific control bond [100−(measured specific bond/control specific bond)×100] obtained in the presence of one of the two tested compounds (I.2 and I.4).
# These experiments (Table 2 hereafter) have shown that the compounds I.2 and I.4 modify the specific binding of a control agonist of the receptors of type 1 to endocannabinoids (CB-1) (according to the test described in reference).
# [4] = test system: glutamate levels in the striatum; settings: ex vivo and in vivo preparations, refs [89-92]; cited from earlier work
Structure (SMILES),melting point,"Papp B→A at 60 min, 150 μm [1]",effect on extracellular Glu and Asp levels [2],action on glutamate when the glutamate levels are high [2],Pharmacological potentiality for modulating the Glu system ([2]; summary of preliminary results),Effect on Glu end/or Asp ([2]; summary of preliminary results),inhibition at 10 µM [3],effect of co-administration of CNQX on the compound's effects [2],"Action through the KA receptors ([2]; summary of preliminary results, co-administration of CNQX (antagonist of KA receptors))",effect on glutamate levels in the striatum [4]
"CN[C@H](C(=O)O)[C@H]1CNC[C@H]1O (racemic) [Compound I.5, (3,4-cis).α-N-methylamino-(4-hydroxy-pyrrolidin-3-yl)acetic acid]",192 °C,,,,,,,,,
"N[C@H](C(=O)O)[C@H]1CNC[C@H]1O [Compound I.1, (αS,3R,4S) α-amino-(4-hydroxy-pyrrolidin-3-yl)acetic acid]",,≤ 5 ×10⁻⁶ cm/s,effects similar to KA,inhibitory actions on the glutamate,Yes,Yes,,,,
"N[C@@H](C(=O)O)[C@@H]1CNC[C@@H]1O [Compound I.2, (αR,3S,4R) α-amino-(4-hydroxy-pyrrolidin-3-yl)acetic acid]",,≤ 5 ×10⁻⁶ cm/s,a reduction in the Glu and Asp levels; also recorded: a reduction in the cerebral extracellular glutamate levels,inhibitory actions on the glutamate,Yes,Yes,29%,seems to partly attenuate its effects,yes for Asp,
"CNC(=O)[C@H](NC(C)=O)[C@@H]1CNC[C@@H]1O [Compound I.3, α-acetamido-(4-hydroxy-pyrrolidin-3-yl)-N-methylacetamide(αR,3S,4R)]",,≤ 5 ×10⁻⁶ cm/s,an effect similar to that of kainate,inhibitory actions on the glutamate,yes,yes,,seems to partly attenuate its effects,,
"CNC(=O)[C@@H](N)[C@H]1CNC[C@H]1O [Compound I.4, .-amino-(4-hydroxy-pyrrolidin-3-yl)-N-methylacetamide(αS,3R,4S)]",,≤ 5 ×10⁻⁶ cm/s,a reduction in the Glu and Asp levels; also recorded: a reduction in the cerebral extracellular glutamate levels,inhibitory actions on the glutamate,yes,yes,29%,seems to partly attenuate its effects,,
"C=C(C)[C@H]1CN[C@H](C(=O)O)[C@H]1CC(=O)O [KA, kainate, reference compound]",,,affected,,,,,,,
"Cc1c(C(=O)c2cccc3ccccc23)c2cccc3c2n1[C@H](CN1CCOCC1)CO3 [WIN 55, 212-2]",,,,,,,,,,induces a reduction in the glutamate levels
Cc1c(C(=O)NN2CCCCC2)nn(-c2ccc(Cl)cc2Cl)c1-c1ccc(Cl)cc1 [rimonabant],,,,,,,,,,cause an increase or do not affect the extracellular glutamate levels
